{
  "source": "patent US11124785B2",
  "about": "“Rothia subtilisins, S8A family proteases, as therapeutic enzymes for application in gluten intolerance disorders” (TRUSTEES OF BOSTON UNIVERSITY, priority 2016, dated 2021)",
  "format_in_all_cases": "biochemical",
  "key": {"wheat ATI proteins": {"tested_on": "wheat ATI proteins", "test": "Degradation of amylase-trypsin inhibitors (SDS-PAGE)", "conditions": "ATIs 500 μg/ml, enzyme 10, 25 or 50 μg/ml, pH 8.0, up to 4 h", "experimental": "(§1) FIGS. 15A-15F show effective ATI degradation by subtilisins from B. subtilis (nattokinase). […] ATI (500 μg/ml) incubated with Rmep from R. mucilaginosa (FIG. 15A) or nattokinase from B. subtilis (FIG. 15C) at 50, 25, or 10 μg/ml; FIGS. 15B and 15D, Gliadins (500 μg/ml) incubated with Rmep (FIG. 15B) or nattokinase (FIG. 15D) at 25 μg/ml. FIGS. 15E and 15F, ATIs incubated with control heat inactivated enzymes, Rmep (FIG. 15E) or nattokinase (FIG. 15F).\n(§2) ATIs were isolated from wheat cultivars as described^3. They were incubated at a final concentration of 500 μg/ml with 10, 25 or 50 μg/ml Rmep (from R. mucilaginosa), or nattokinase (from B. subtilis). The controls incubations were carried out with heat-inactivated Rmep and nattokinase. Experiments were conducted in 50 mM Tris-HCl, pH 8.0. After 0, 15 min, 30 min, 1 h, and 4 h incubation, 20 μl aliquots were removed, mixed with SDS-sample buffer, heated at 85° C. for 5 min and analyzed by 4-12% SDS PAGE. Proteins were visualized with Coomassie Blue staining."}, "gliadins": {"tested_on": "gliadins", "test": "Gliadin degradation control of Example 3 (SDS-PAGE)", "conditions": "gliadins 500 μg/ml, enzyme 25 μg/ml, pH 8.0", "experimental": "as §1, §2"}, "[1]": {"tested_on": "gliadin-derived FRET substrate QGSFQP", "test": "FRET substrate hydrolysis, QGSFQP", "conditions": "substrate 100 μM, Rmep 1 μg/ml, pH 8.0", "experimental": "(§3) FIG. 4D and FIG. 4E are representative graphs of the hydrolysis of gliadin-derived FRET substrates. FRET substrates containing QPQLPY (SEQ ID NO: 22), PQPQPQ (SEQ ID NO: 23) and QGSFQP (SEQ ID NO: 24), each at 100 μM, were incubated with Rmep […] and subtilisin A (FIG. 4E), at 1 μg/ml and 0.5 μg/ml, respectively. Controls were boiled Rmep and subtilisin A incubated with PQPQLPY (+) (SEQ ID NO: 25), PQPQPQ (⋄) (SEQ ID NO: 23) and QGSFQP (*) (SEQ ID NO: 24) (no activity, baseline).\n(§4) FRET substrate hydrolysis—Three fluorescence resonance energy transfer (FRET) substrates comprising the hexapeptides QPQLPY (SEQ ID NO: 22), PQPQPQ (SEQ ID NO: 23) and QGSFQP (SEQ ID NO: 24) were synthesized with at the N-terminus the HILYTE FLUOR™ 488 label, and at the C-terminus with K(QXL520) (Anaspec, Fremont, Calif.). Rmep (1 μg/ml) and subtilisin A (0.5 μg/ml) were incubated with the substrates (100 μM) in 50 mM TrisHCl pH 8.0. Samples were incubated at 37° C. and fluorescence increase, indicating hydrolysis, was measured every 5 min for 30 min, and every 10 min for the next 30 min, at λex 485 nm and λem 520 nm, using a Genios microtiter plate reader in the kinetic mode."}, "Suc-AAPF-pNA": {"tested_on": "Suc-AAPF-pNA", "test": "pH activity profile of Rmep with Suc-AAPF-pNA", "conditions": "Suc-AAPF-pNA 200 μM; citric acid/phosphate buffer mixtures pH 2-12", "experimental": "Activity of Rmep in 0.1M Citric acid/0.2M phosphate buffer mixtures, pH 2-12, was measured with Suc-AAPF-pNA (SEQ ID NO: 4) (200 μM) as the substrate.\nHydrolysis of paranitroanilide-derivatized substrates—Paranitroanilide (pNA)-derivatized tripeptide substrates were chemically synthesized at >90% purity (21st Century Biochemicals, Marlborough, Mass.). The substrates obtained were Z-YPQ-pNA, Z-QQP-pNA, Z-LPY-pNA, Z-PFP-pNA, Z-PPF-pNA, where Z=benzyloxycarbonyl, Y=tyrosine, P=proline, Q=glutamine, L=leucine, and F=phenylalanine Suc-AAPF-pNA (SEQ ID NO: 4) was obtained from Sigma, where Suc=N-succinyl and A=alanine. The peptides were dissolved in 75-100% DMSO at 10 mM, and were used at a final concentration of 200 μM in 50 mM TrisHCl pH 8.0. Purified Rothia enzyme or subtilisin A from Bacillus licheniformis (Sigma) were tested at final concentrations of 1 μg/ml. Some experiments were conducted in the presence of inhibitors 4-(2-Aminoethyl) benzenesulfonyl fluoride (AEBSF), Aprotinin, E-64, EDTA, phenylmethanesulfonyl fluoride (PMSF) and Eglin C, which were tested at final concentrations of 10 mM, 0.08 mM, 0.1 mM, 1.5 mM, 1 mM, and 0.06-1.2 μM, respectively. […] Substrate hydrolysis was monitored for 10 h at 405 nm using a Genios microtiter plate reader (Tecan, Männedorf, Switzerland) in the kinetic mode at 37° C."}, "[2]": {"tested_on": "gliadin-derived FRET substrate QPQLPY", "test": "FRET substrate hydrolysis, QPQLPY", "conditions": "substrate 100 μM, Rmep 1 μg/ml, pH 8.0, 37° C.", "experimental": "as §3, §4"}},
  "data": [
    {"substance": "Rmep: DEAE pooled fraction F2 of R. mucilaginosa ATCC 25296 extract with highest gluten-degrading enzyme activity; contains subtilisins C6R5V9_9MICC and C6R5W1_9MICC", "values": [
      {"measurement": "degradation of wheat ATI proteins", "setting": "wheat ATI proteins", "result": "resistant to degradation"},
      {"measurement": "degradation of gliadins", "setting": "gliadins", "result": "degraded"},
      {"measurement": "hydrolysis of FRET substrate QGSFQP", "setting": "[1]", "result": "not cleaved"},
      {"measurement": "pH range over which the enzyme was active", "setting": "Suc-AAPF-pNA", "result": "6.0-10.0"},
      {"measurement": "hydrolysis of FRET substrate QPQLPY", "setting": "[2]", "result": "rapidly hydrolyzed"}
    ]}
  ]
}
